Compound: C[C@@H](C(=O)N[C@@H](C1CCCCC1)C(=O)N2CCC[C@H]2C(=O)N[C@@H]3[C@@H](CC4=CC=CC=C34)OCC#CC#CCO[C@@H]5CC6=CC=CC=C6[C@@H]5NC(=O)[C@@H]7CCCN7C(=O)[C@H](C8CCCCC8)NC(=O)[C@H](C)NC)NC [AZD5582] + Nc1nc2[nH]cc(CCc3ccc(C(=O)N[C@@H](CCC(=O)O)C(=O)O)cc3)c2c(=O)[nH]1 [Pemetrexed] (partner 0.2 µM)
Test: relative viability (nuclei count vs DMSO), 5 days (fraction); higher = more cells survive
Conditions: first compound 0.001581 µM
In short: (§1)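 Relative viability equals treated-well nuclei counts divided by vehicle-well nuclei counts. Counts came from 4× images of lung cancer cell lines grown in 1536-well plates for 5 days after pin-tool dosing on the day after seeding. Dosing used one drug alone or a fixed anchor-drug dose plus five library-drug doses (not always all listed) in √10 steps, and values are medians of duplicate plates.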

Cell Line	relative viability
LU99A	0.169
LXF-289	0.798
NCI-H23	0.578
NCI-H322M	0.705
NCI-H441	0.253
NCI-H460	0.0644
NCI-H520	0.66
NCI-H596	0.323
NCI-H647	0.126
NCI-H650	0.843
NCI-H661	0.915
NCI-H838	0.258
NCI-H1355	0.942
NCI-H1437	0.337
NCI-H1650	0.385
NCI-H1651	0.507
NCI-H1666	0.788

Cell Line	relative viability
NCI-H1734	0.406
NCI-H1755	0.399
NCI-H1915	0.437
NCI-H1975	0.266
NCI-H1993	0.495
NCI-H2009	1
NCI-H2023	0.198
NCI-H2085	0.999
NCI-H2087	0.656
NCI-H2126	0.626
NCI-H2228	0.281
NCI-H2347	0.369
NCI-H2405	1.05
NCI-H3122	0.165
PC-3 [JPC-3]	0.824
PC-14	0.105

Same assay, conditions: first compound 0.005 µM

Cell Line	relative viability
LU99A	0.186
LXF-289	0.815
NCI-H23	0.514
NCI-H322M	0.732
NCI-H441	0.314
NCI-H460	0.0659
NCI-H520	0.755
NCI-H647	0.14
NCI-H650	0.959
NCI-H661	0.899
NCI-H838	0.246
NCI-H1355	1
NCI-H1437	0.294
NCI-H1650	0.396
NCI-H1651	0.562
NCI-H1666	0.879

Cell Line	relative viability
NCI-H1734	0.407
NCI-H1755	0.375
NCI-H1915	0.428
NCI-H1975	0.248
NCI-H1993	0.527
NCI-H2009	1.01
NCI-H2023	0.216
NCI-H2085	1.07
NCI-H2087	0.665
NCI-H2126	0.689
NCI-H2228	0.285
NCI-H2347	0.441
NCI-H2405	1.13
NCI-H3122	0.152
PC-3 [JPC-3]	0.957
PC-14	0.112

Same assay, conditions: first compound 0.01581 µM

Cell Line	relative viability
LU99A	0.168
LXF-289	0.872
NCI-H23	0.55
NCI-H322M	0.659
NCI-H441	0.292
NCI-H460	0.0592
NCI-H520	0.699
NCI-H596	0.448
NCI-H647	0.193
NCI-H650	0.605
NCI-H661	0.98
NCI-H838	0.235
NCI-H1355	0.986
NCI-H1437	0.263
NCI-H1650	0.362
NCI-H1651	0.52
NCI-H1666	0.794

Cell Line	relative viability
NCI-H1734	0.415
NCI-H1755	0.387
NCI-H1915	0.506
NCI-H1975	0.291
NCI-H1993	0.561
NCI-H2009	1.03
NCI-H2023	0.26
NCI-H2085	0.482
NCI-H2087	0.662
NCI-H2126	0.55
NCI-H2228	0.305
NCI-H2347	0.41
NCI-H2405	1.09
NCI-H3122	0.197
PC-3 [JPC-3]	1.03
PC-14	0.14

Same assay, conditions: first compound 0.05 µM

Cell Line	relative viability
LU99A	0.185
LXF-289	0.797
NCI-H23	0.455
NCI-H322M	0.785
NCI-H441	0.253
NCI-H460	0.059
NCI-H520	0.691
NCI-H596	0.263
NCI-H647	0.124
NCI-H650	0.644
NCI-H661	0.904
NCI-H838	0.262
NCI-H1355	0.815
NCI-H1437	0.326
NCI-H1650	0.412
NCI-H1651	0.638
NCI-H1666	0.71

Cell Line	relative viability
NCI-H1734	0.437
NCI-H1755	0.414
NCI-H1915	0.497
NCI-H1975	0.235
NCI-H1993	0.679
NCI-H2009	1.08
NCI-H2023	0.183
NCI-H2085	0.848
NCI-H2087	0.656
NCI-H2126	0.472
NCI-H2228	0.21
NCI-H2347	0.402
NCI-H2405	1.12
NCI-H3122	0.116
PC-3 [JPC-3]	0.519
PC-14	0.101

Compound: Cn1nnc2c(C(N)=O)ncn2c1=O [Temozolomide] + O=C(CCCCCCC(=O)Nc1ccccc1)NO [Vorinostat] (partner 1 µM)
Test: as above
Conditions: first compound 0.2 µM
In short: as §1

Cell Line	relative viability
LU99A	0.501
LXF-289	0.782
NCI-H23	0.79
NCI-H322M	0.93
NCI-H441	0.986
NCI-H460	0.67
NCI-H520	0.79
NCI-H596	0.683
NCI-H647	0.886
NCI-H650	0.522
NCI-H661	0.862
NCI-H838	0.751
NCI-H1355	0.6
NCI-H1437	0.748
NCI-H1650	0.529
NCI-H1651	0.582
NCI-H1666	1.07
NCI-H1734	0.814
NCI-H1755	0.863
NCI-H1915	0.61
NCI-H1975	0.854
NCI-H1993	0.546
NCI-H2009	0.826
NCI-H2023	0.725
